Measured values from patent publication US20100184094A1, “USE OF MDCK CELLS IN THE EVALUATION OF CHOLESTEROL MODULATORS” (priority 2007, published 2010).

Experiments:
[1] = target: dog NPC1L1 endogenously expressed in MDCKII cells (Canis lupus familiaris, UniProt A0A8I3RZG1); assay: [3H]AS binding to MDCKII cells (saturation, kinetics, competition, acid wash); conditions: for IC50: 5.49 nM [3H]AS, 4 h, 37° C., read-out: IC50 inhibition of [3H]AS binding; for Ki: MDCKII cells
Description: rNPC1L1/HEK293 and TsA201 cells were seeded at a density of 10,000 cells per well in 96-well poly-D-lysine coated plates and cells were allowed to attach for approximately 18 h at 37° C. TsA201 cells were subsequently transfected with dog NPC1L1/pcDNA5/FRT according to the manufacturer's instructions (Roche) and incubated for 3 days at 37° C. MDCKII-derived, LLC-PKI, HepG2, or CaCo-2 cells were seeded at a density of 25,000 cells per well in 96-well tissue culture treated plates, and cells were allowed to attach and differentiate for approximately 72 h at 37° C., except for CaCo-2 cells where differentiation took approximately 14 days at 37° C. […] Duplicate samples were averaged for each experimental point. […] Dissociation kinetics were determined by addition of 100 μM EZE-gluc, and incubating for different periods of time. Nonspecific binding was defined in the presence of 100 μM EZE-gluc. At the end of the incubation period, cells were washed twice with 200 μl of pre-warmed DMEM to separate bound from free ligand, 1% SDS was added to the wells followed by 5 ml of Scintillant, and radioactivity associated with cells was determined using a β-counter. […] Thereafter, plates were placed on ice and cells were washed twice with ice-cold PBS, followed by ice-cold acid wash with DMEM, pH 3.5, for 1, 5 or 15 minutes. […] For Transwell experiments, MDCKII cells were seeded at 200,000 cells/well in a 24-well plate and incubated for 3 days at 37° C. […] Thereafter, both apical and basolateral compartments were washed three times with PBS, and the Transwell filter was cut out and its associated radioactivity determined using afi-counter. Data from saturation, competition and ligand dissociation experiments were analyzed as described in the literature; see, Priest, et al., 2004 Biochemistry 43:9866-9876; Knaus et al., 1995 Biochemistry 34:13627-13634. The association rate, k1, was determined by employing the pseudo-first-order rate equation k1=kobs([LR]e/[L][LR]max)) where [LR]max is the concentration of the complex at equilibrium, [L] is the concentration of ligand, [LR]max is the total receptor concentration, kobs is the slope of the pseudo-first order plot, ln([LR]e/([LR]e−[LR]t)) versus time, and [LR]t is the receptor-ligand complex at one given time point t.

rat NPC1L1 = target: T1, rat NPC1L1 (Rattus norvegicus, UniProt Q6T3U3); assay: [3H]AS binding to rNPC1L1/HEK293 cells (saturation, kinetics, competition, acid wash); conditions: for IC50: 5.36 nM [3H]AS, 4 h, 37° C., read-out: IC50 inhibition of [3H]AS binding; for Ki: rNPC1L1/HEK293 cells
T1 construct: expressed in transfected cells
Description: rNPC1L1/HEK293 and TsA201 cells were seeded at a density of 10,000 cells per well in 96-well poly-D-lysine coated plates and cells were allowed to attach for approximately 18 h at 37° C. TsA201 cells were subsequently transfected with dog NPC1L1/pcDNA5/FRT according to the manufacturer's instructions (Roche) and incubated for 3 days at 37° C. MDCKII-derived, LLC-PKI, HepG2, or CaCo-2 cells were seeded at a density of 25,000 cells per well in 96-well tissue culture treated plates, and cells were allowed to attach and differentiate for approximately 72 h at 37° C., except for CaCo-2 cells where differentiation took approximately 14 days at 37° C. […] Duplicate samples were averaged for each experimental point. […] To determine the kinetics of ligand association, cells were incubated with [^3H]AS for different periods of time. Dissociation kinetics were determined by addition of 100 μM EZE-gluc, and incubating for different periods of time. Nonspecific binding was defined in the presence of 100 μM EZE-gluc. At the end of the incubation period, cells were washed twice with 200 μl of pre-warmed DMEM to separate bound from free ligand, 1% SDS was added to the wells followed by 5 ml of Scintillant, and radioactivity associated with cells was determined using a β-counter. […] Thereafter, plates were placed on ice and cells were washed twice with ice-cold PBS, followed by ice-cold acid wash with DMEM, pH 3.5, for 1, 5 or 15 minutes. […] For Transwell experiments, MDCKII cells were seeded at 200,000 cells/well in a 24-well plate and incubated for 3 days at 37° C. […] Thereafter, both apical and basolateral compartments were washed three times with PBS, and the Transwell filter was cut out and its associated radioactivity determined using afi-counter. Data from saturation, competition and ligand dissociation experiments were analyzed as described in the literature; see, Priest, et al., 2004 Biochemistry 43:9866-9876; Knaus et al., 1995 Biochemistry 34:13627-13634. The association rate, k1, was determined by employing the pseudo-first-order rate equation k1=kobs([LR]e/[L][LR]max)) where [LR]max is the concentration of the complex at equilibrium, [L] is the concentration of ligand, [LR]max is the total receptor concentration, kobs is the slope of the pseudo-first order plot, ln([LR]e/([LR]e−[LR]t)) versus time, and [LR]t is the receptor-ligand complex at one given time point t.
Incubation of rNPC1L1/HEK293 cells with 5 nM [311]AS results in a time-dependent association of ligand with cells that reaches equilibrium in ˜3 h (FIG. 1B). The nonspecific binding component is time-independent and has been subtracted from the experimental data. A semilogarithmic transformation of the data yielded a linear dependence (FIG. 1B, inset), as expected for a pseudo-first order reaction, and the slope of this line gives kobs of 0.0208 min^−1. The association rate constant, k1, calculated as described under Example 3, is 2.4×10^6 M^−1 min^−1.
Ki values, determined as described above, are presented in Table 1 below and display the expected rank order of potency for interaction of these ligands with rat NPC1L1; Garcia-Calvo et al., 2005 Proc. Natl. Acad. Sci. USA 102:8132-8137.
Such an approach has previously been previously used to characterize cell surface, non-covalent interactions; Hopkins & Trowbridge, 1983 J. Cell Biol. 97:508-521; Chen et al., 1998 Proc. Natl. Acad. USA 95:6373-6378.

dog NPC1L1 endogenously expressed in MDCKII cells, sequence (A0A8I3RZG1 entry or part of it): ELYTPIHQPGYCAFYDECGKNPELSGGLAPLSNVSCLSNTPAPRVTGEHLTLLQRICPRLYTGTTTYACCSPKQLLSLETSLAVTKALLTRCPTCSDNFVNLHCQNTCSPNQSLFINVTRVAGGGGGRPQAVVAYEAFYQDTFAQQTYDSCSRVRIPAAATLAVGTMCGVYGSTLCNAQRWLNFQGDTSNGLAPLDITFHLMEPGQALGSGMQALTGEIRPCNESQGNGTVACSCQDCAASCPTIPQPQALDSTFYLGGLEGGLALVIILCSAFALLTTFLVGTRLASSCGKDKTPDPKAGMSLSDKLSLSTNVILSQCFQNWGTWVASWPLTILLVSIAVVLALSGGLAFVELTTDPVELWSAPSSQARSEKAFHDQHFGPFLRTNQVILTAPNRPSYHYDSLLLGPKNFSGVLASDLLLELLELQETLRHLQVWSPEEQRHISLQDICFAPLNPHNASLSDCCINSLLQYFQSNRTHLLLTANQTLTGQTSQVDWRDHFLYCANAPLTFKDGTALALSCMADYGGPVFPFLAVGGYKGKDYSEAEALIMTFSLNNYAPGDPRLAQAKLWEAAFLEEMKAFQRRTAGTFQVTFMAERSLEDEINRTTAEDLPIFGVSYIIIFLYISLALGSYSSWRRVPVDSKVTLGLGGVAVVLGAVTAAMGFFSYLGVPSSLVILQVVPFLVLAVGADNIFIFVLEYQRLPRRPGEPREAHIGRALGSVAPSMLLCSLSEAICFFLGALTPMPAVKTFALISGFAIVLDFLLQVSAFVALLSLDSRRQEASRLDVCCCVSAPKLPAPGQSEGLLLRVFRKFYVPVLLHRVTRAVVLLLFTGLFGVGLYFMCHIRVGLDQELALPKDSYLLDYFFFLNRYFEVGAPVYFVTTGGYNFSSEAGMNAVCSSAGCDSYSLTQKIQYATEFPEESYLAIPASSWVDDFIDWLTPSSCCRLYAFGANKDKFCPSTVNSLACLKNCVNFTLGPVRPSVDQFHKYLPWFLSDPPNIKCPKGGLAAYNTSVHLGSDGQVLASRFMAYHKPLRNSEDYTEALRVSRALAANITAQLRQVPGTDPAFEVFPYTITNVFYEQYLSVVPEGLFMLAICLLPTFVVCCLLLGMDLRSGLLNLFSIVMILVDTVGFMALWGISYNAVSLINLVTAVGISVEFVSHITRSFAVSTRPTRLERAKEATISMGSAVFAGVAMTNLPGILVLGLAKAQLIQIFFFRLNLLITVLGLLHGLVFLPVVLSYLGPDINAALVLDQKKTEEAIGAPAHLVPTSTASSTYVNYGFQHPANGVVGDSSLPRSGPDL

Row | SMILES | IC50 [1] | fold weaker than AS and PS as inhibitor of [3H]AS binding ([1]; MDCK cells) | Ki [1] | IC50 (rat NPC1L1) | Ki (rat NPC1L1)
1 | O=C(O)[C@H]1O[C@@H](Oc2ccc([C@@H]3[C@@H](CC[C@H](O)c4ccc(F)cc4)C(=O)N3c3ccc(F)cc3)cc2)[C@H](O)[C@@H](O)[C@@H]1O [EZE-gluc, ezetimibe glucuronide] | 24 nM | ~10 fold | 3.51 ± 0.89 nM | 182 nM | 95.1 ± 8.62 nM
2 | COC(=O)[C@H]1O[C@@H](Oc2ccc([C@@H]3[C@@H](CC[C@H](O)c4ccc(F)cc4)C(=O)N3c3ccc(C#CCNS(C)(=O)=O)cc3)cc2)[C@H](O)[C@@H](O)[C@@H]1O [PS, 4-[(2S,3R)-3-[(3S)-3-(4-fluorophenyl)-3-hydroxypropyl]-1-(4-{3-[(methylsulfonyl)amino]prop-1-yn-1-yl}phenyl)-4-oxoazetidin-2-yl]phenyl methyl-β-D-glucopyranosiduronate] | 3.02 nM | – | 0.33 ± 0.05 nM | 6.61 nM | 4.07 ± 1.47 nM
3 | O=C1[C@H](CC[C@H](O)c2ccc(F)cc2)[C@@H](c2ccc(O)cc2)N1c1ccc(F)cc1 [EZE, Ezetimibe] | 126 nM | – | 14 ± 4.11 nM | 398 nM | 209 ± 40.4 nM
